Assay [1] has as its target T1, purified wild type MGL (wt-MGLL 6H-11-313) (Homo sapiens, UniProt Q99685).
T1 construct: purified wild type MGL (wt-MGLL 6H-11-313)
T1 sequence (Q99685 1-303): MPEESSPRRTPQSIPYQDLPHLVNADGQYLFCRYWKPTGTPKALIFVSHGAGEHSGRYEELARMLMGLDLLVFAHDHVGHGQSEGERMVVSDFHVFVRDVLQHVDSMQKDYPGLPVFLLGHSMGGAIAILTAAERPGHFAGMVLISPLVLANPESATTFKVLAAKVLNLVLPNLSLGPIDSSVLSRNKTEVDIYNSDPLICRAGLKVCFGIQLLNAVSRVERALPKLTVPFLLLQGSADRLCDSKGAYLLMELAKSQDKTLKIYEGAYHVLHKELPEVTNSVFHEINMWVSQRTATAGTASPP
Kind of assay: MGL enzyme activity assay (4MU-B cleavage), wild type MGL. Type of assay: biochemical. As to conditions: 10 μM 4MU-B, 5 nM enzyme, 37° C., read-out: MGL wild type inh IC50. In short, it runs like this:
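Enzyme (5 nM final) cleaved 4MU-B (10 μM final) in 20 mM PIPES pH 7.0 with 150 mM NaCl and 0.001% Tween 20. Compounds were tested at 17 to 0.0003 μM final. Fluorescence (ex 335/em 440 nm) was monitored at 37° C for 5 min, and IC50 was fitted from fractional activity versus inhibitor concentration.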

Another assay has as its target T2, MGL (Rattus norvegicus, UniProt Q8R431).
T2 construct: one g rat brain was homogenized; from tissue; host or cells: rat brain homogenate
T2 sequence (Q8R431 1-303): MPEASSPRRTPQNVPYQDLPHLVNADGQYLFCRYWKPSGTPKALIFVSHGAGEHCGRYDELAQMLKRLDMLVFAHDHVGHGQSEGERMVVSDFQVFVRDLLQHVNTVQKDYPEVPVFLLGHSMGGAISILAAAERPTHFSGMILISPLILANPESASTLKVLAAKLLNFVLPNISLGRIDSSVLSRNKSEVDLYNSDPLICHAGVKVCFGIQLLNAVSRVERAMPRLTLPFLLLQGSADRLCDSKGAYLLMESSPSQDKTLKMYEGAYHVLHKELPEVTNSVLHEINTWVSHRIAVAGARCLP
Kind of assay: 2-AG accumulation assay in rat brain homogenate. The format is biochemical. The conditions noted are these: compound @1 μM; for 2-AG accumulation, percent of vehicle control at 1 µM: read-out: Rat Brain 2AG % VehCntrl (%) @1 μM. The method, then: After a 15-min incubation time at 37° C., CaCl2 (final concentration=10 mM) was added and then incubated for 15 min at 37° C. in a total volume of 5 mL. The reactions were stopped with 6 mL organic solvent extraction solution of 2:1 chloroform/methanol. Accumulated 2-AG in the organic phase was measured by a HPLC/MS method, according to the following equation: percent vehicle=(2-AG accumulation in the presence of compound/2-AG accumulation in vehicle)×100.

A further assay addresses T3, mutant MGL (Homo sapiens, UniProt Q99685, L169S/L176S).
T3 construct: purified mutant MGL (mut-MGLL 11-313 L179S L186S)
T3 sequence (Q99685 1-303 L169S/L176S): T1 sequence (Q99685 1-303) with L169S, L176S
Put plainly: MGL ThermoFluor assay - mutant. Type of assay: binding. In short, it runs like this:
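Thermal shift binding with 0.07 mg/ml L169S/L176S MGL, 100 μM 1,8-ANS, 200 mM NaCl, 0.001% Tween-20, 50 mM PIPES pH 7.0. Heated 40–90 °C at 1 °C/min, fluorescence (em 500 nm) tracked to give Tm; Kd fitted from 11-point concentration–Tm response, qKd when stocks quantified by qNMR.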

Where [2] appears, read: compound concentration measured by qNMR, read-out: MGL mutant ThermoFluor qKd (using qNMR conc.).
[3] abbreviates: 0.07 mg/ml mutant MGL, pH=7.0, read-out: MGL mutant ThermoFluor Kd.

Residue numbers refer to the chain shown, from its start. Like-named read-outs stand apart in the source and are kept apart here.

For the compound `O=C(c1ccc(-c2ccc(C(F)(F)F)s2)cc1)N1CCC(C2CN(C(=O)c3nccs3)C2)CC1` [Cpd 54, 4-[1-(1,3-Thiazol-2-ylcarbonyl)azetidin-3-yl]-1-({4-[5-(trifluoromethyl)thiophen-2-yl]phenyl}carbonyl)piperidine], in assay [1], the half-inhibitory concentration (IC50) was less than 5 nM. Moreover, on MGL, the 2-AG accumulation, percent of vehicle control at 1 µM stood at 736%. For the same compound, the Kd at mutant MGL (setting [2]) worked out at 1.8 nM.
The matching figures for `O=C(c1ccc2c(ccn2-c2ccc(F)cc2)c1)N1CCC(C2CN(C(=O)c3nccs3)C2)CC1` [Cpd 72, 1-(4-Fluorophenyl)-5-({4-[1-(1,3-thiazol-2-ylcarbonyl)azetidin-3-yl]piperidin-1-yl}carbonyl)-1H-indole]: 17 nM, 657% and 2.7 nM.
For the compound `O=C(c1ccc2c(ccn2-c2ccc(F)cc2)c1)N1CC(C2CCN(C(=O)c3cscn3)CC2)C1` [Cpd 36, 1-(4-Fluorophenyl)-5-({3-[1-(1,3-thiazol-4-ylcarbonyl)piperidin-4-yl]azetidin-1-yl}carbonyl)-1H-indole], the IC50 in assay [1] was less than 5 nM. Besides, the 2-AG accumulation, percent of vehicle control at 1 µM at MGL worked out at 507%. For the same compound, the Kd at mutant MGL (setting [3]) was found to be 22.5 nM.
The matching figures for `O=C(c1ccc(-c2cccc(C(F)(F)F)c2)cc1)N1CC(C2CCN(C(=O)c3ccc[nH]3)CC2)C1` [Cpd 22, 1-(1H-Pyrrol-2-ylcarbonyl)-4-(1-{[3′-(trifluoromethyl)biphenyl-4-yl]carbonyl}azetidin-3-yl)piperidine]: 8 nM, 470% and 6.6 nM.
Take `O=C(c1ccc(-c2ccc(C(F)(F)F)s2)cc1)N1CC(C2CCN(C(=O)c3cscn3)CC2)C1` [Cpd 12, 1-(1,3-Thiazol-4-ylcarbonyl)-4-[1-({4-[5-(trifluoromethyl)thiophen-2-yl]phenyl}carbonyl)azetidin-3-yl]piperidine]: in assay [1], the IC50 is 10 nM. Besides, the 2-AG accumulation, percent of vehicle control at 1 µM at MGL is 134%. Moreover, the Kd at mutant MGL (setting [3]) was 22 nM.
On the same counts, the results for `O=C(c1ccc(Cc2cccc(C(F)(F)F)c2)cc1)N1CC(C2CCN(C(=O)c3cscn3)CC2)C1` [Cpd 13, 1-(1,3-Thiazol-4-ylcarbonyl)-4-[1-({4-[3-(trifluoromethyl)benzyl]phenyl}carbonyl)azetidin-3-yl]piperidine] are less than 5 nM, 335% and 28 nM.
For the compound `O=C(c1ccc(Cc2ccc(C(F)(F)F)cc2)cc1)N1CCC(C2CN(C(=O)c3cscn3)C2)CC1` [Cpd 64, 4-[1-(1,3-Thiazol-4-ylcarbonyl)azetidin-3-yl]-1-({4-[4-(trifluoromethyl)benzyl]phenyl}carbonyl)piperidine], in assay [1], the IC50 is less than 5 nM. For the same compound, the 2-AG accumulation, percent of vehicle control at 1 µM on MGL turned out to be 383%. For the same compound, the Kd on mutant MGL (setting [2]) came to 18.9 nM.
On to `O=C(c1ccc(-c2ccc(C(F)(F)F)s2)cc1)N1CCC(C2CN(C(=O)c3ccc[nH]3)C2)CC1` [Cpd 56, 4-[1-(1H-Pyrrol-2-ylcarbonyl)azetidin-3-yl]-1-({4-[5-(trifluoromethyl)thiophen-2-yl]phenyl}carbonyl)piperidine], for which, in assay [1], the IC50 was less than 5 nM. Besides, the 2-AG accumulation, percent of vehicle control at 1 µM at MGL was determined as 285%. Besides, the Kd amounted to 5.5 nM on mutant MGL (setting [3]) and 3.3 nM at mutant MGL (setting [2]).
Turning to `O=C(c1nccs1)N1CC(C2CCN(C(=O)c3ccc(-c4ccccc4)cc3F)CC2)C1` [Cpd 45], in assay [1], the concentration for half-maximal inhibition (IC50) was less than 5 nM. Also, the 2-AG accumulation, percent of vehicle control at 1 µM at MGL was found to be 385%. In addition, the Kd at mutant MGL (setting [2]) came to 12.2 nM.
With `O=C(c1cscn1)N1CCC(C2CN(C(=O)c3sc4cc(C(F)(F)F)ccc4c3Cl)C2)CC1` [Cpd 35, 4-(1-{[3-Chloro-6-(trifluoromethyl)-1-benzothiophen-2-yl]carbonyl}azetidin-3-yl)-1-(1,3-thiazol-4-ylcarbonyl)piperidine], the IC50 in assay [1] was less than 5 nM. Besides, on MGL, the 2-AG accumulation, percent of vehicle control at 1 µM turned out to be 724%. Also, the results for the Kd on mutant MGL (setting [3]) and at mutant MGL (setting [2]) were 2.5 nM and 5.7 nM, respectively.
On the same counts, the results for `Cc1c(C(=O)N2CCC(C3CN(C(=O)c4ccc[nH]4)C3)CC2)sc2cc(C(F)(F)F)ccc12` [Cpd 62] are less than 5 nM, 422%, 1.3 nM and 0.6 nM.
For `O=C(c1ccc2nc(-c3ccccc3)oc2c1)N1CC(C2CCN(C(=O)c3cscn3)CC2)C1` [Cpd 34, 2-Phenyl-6-({3-[1-(1,3-thiazol-4-ylcarbonyl)piperidin-4-yl]azetidin-l-yl}carbonyl)-1,3-benzoxazole], in assay [1], the IC50 is 54.4 nM. In addition, the 2-AG accumulation, percent of vehicle control at 1 µM at MGL is 517%. Also, the Kd on mutant MGL (setting [3]) stood at 198 nM.
For `O=C(c1ccc2c(ccn2-c2ccc(F)c(F)c2)c1)N1CCC(C2CN(C(=O)c3ccc[nH]3)C2)CC1` [Cpd 80, 1-(3,4-Difluorophenyl)-5-({4-[1-(1H-pyrrol-2-ylcarbonyl)azetidin-3-yl]piperidin-1-yl}carbonyl)-1H-indole], the IC50 in assay [1] was less than 5 nM. For the same compound, the 2-AG accumulation, percent of vehicle control at 1 µM on MGL was found to be 860%. Besides, at mutant MGL (setting [2]), the Kd was 4.9 nM.
For the compound `O=C(c1ccc(Cc2cccc(C(F)(F)F)c2)cc1)N1CCC(C2CN(C(=O)c3nccs3)C2)CC1` [Cpd 57, 4-[1-(1,3-Thiazol-2-ylcarbonyl)azetidin-3-yl]-1-({4-[3-(trifluoromethyl)benzyl]phenyl}carbonyl)piperidine], the IC50 in assay [1] worked out at 17 nM. Moreover, on MGL, the 2-AG accumulation, percent of vehicle control at 1 µM was determined as 869%. The Kd at mutant MGL (setting [2]) was determined as 5.9 nM.
On the same counts, the results for `O=C(c1ccc2c(ccn2-c2ccc(F)cc2)c1)N1CCC(C2CN(C(=O)c3cscn3)C2)CC1` [Cpd 73, 1-(4-Fluorophenyl)-5-({4-[1-(1,3-thiazol-4-ylcarbonyl)azetidin-3-yl]piperidin-1-yl}carbonyl)-1H-indole] are 12 nM, 875% and 4.8 nM.
In the case of `O=C(c1ccc(-c2cccc(C(F)(F)F)c2)cc1)N1CCC(C2CN(C(=O)c3cscn3)C2)CC1` [Cpd 49, 4-[1-(1,3-Thiazol-4-ylcarbonyl)azetidin-3-yl]-1-{[3′-(trifluoromethyl)biphenyl-4-yl]carbonyl}piperidine], the IC50 in assay [1] stood at 6 nM. For the same compound, the 2-AG accumulation, percent of vehicle control at 1 µM at MGL came to 908%. Further, at mutant MGL (setting [2]), the Kd stood at 1 nM.
Take `O=C(c1nccs1)N1CCC(C2CN(C(=O)c3ccc(-c4ccccc4)cc3F)C2)CC1` [Cpd 15, 4-{1-[(3-Fluorobiphenyl-4-yl)carbonyl]azetidin-3-yl}-1-(1,3-thiazol-2-ylcarbonyl)piperidine]: the IC50 in assay [1] was 7 nM. Also, the 2-AG accumulation, percent of vehicle control at 1 µM at MGL stood at 281%. The Kd at mutant MGL (setting [3]) worked out at 9 nM.
With “1-(1H-Pyrrol-2-ylcarbonyl)-4-[1-({4-3-(trifluoromethyl)benzyl]phenyl}carbonyl)azetidin-3-yl]piperidine [Cpd 25]”, the IC50 in assay [1] was 12 nM. Further, at MGL (percent vehicle), the “Rat Brain 2AG % VehCntrl (%) @1 μM” value is recorded as 540%. Further, the Kd at mutant MGL (setting [3]) stood at 27.5 nM.
In the case of `O=C(c1ccc2c(ccn2-c2ccc(F)c(F)c2)c1)N1CCC(C2CN(C(=O)c3cscn3)C2)CC1` [Cpd 79, 1-(3,4-Difluorophenyl)-5-({4-[1-(1,3-thiazol-4-ylcarbonyl)azetidin-3-yl]piperidin-1-yl}carbonyl)-1H-indole], the IC50 in assay [1] turned out to be 9 nM. Moreover, the 2-AG accumulation, percent of vehicle control at 1 µM on MGL worked out at 946%. In addition, on mutant MGL (setting [2]), the Kd came out at 3.3 nM.

For the origin of these results see patent US8513423B2 (Janssen Pharmaceutica, NV, priority 2010, dated 2013).
